Experimental data: patent US9856511B2, “Protease deubiquitinating inhibitor screening” (priority 2011, dated 2018)

How the values were obtained:
Type in all cases: biochemical
[1] = target: T1, 19S RP (Homo sapiens, UniProt P54578+Q9Y5K5); assay: De-ubiquitinase activity assay, purified 19S RP with ubiquitin-AMC
T1 construct: purchased Boston Biochem E-366
Procedure: In vitro proteasome activity assays were performed in black 96-well microtiter plates using human 20S proteasome (Boston Biochem) in reaction buffer (25 mM Hepes, 0.5 mM EDTA, 0.03% SDS) with Suc-LLVY-AMC, Z-LLE-AMC or Boc-LRRAMC used as substrates for proteasome activity. De-ubiquitinase activity assays were performed with human 19S RP (Boston Biochem) with ubiquitin-AMC as substrate. For xenograft studies a 100-μl-cell suspension containing 1×10^6 FaDu head-neck or 2×10^5 Lewis Lung Carcinoma (LLC) cells were injected subcutaneously into the flank of SCID or C57BL/6J mice. Upon tumor take mice were randomized into control or treatment groups and administered with 5 mg kg^−1 b-AP15 or vehicle. In vivo levels of apoptosis and cell death were determined from the detection of caspase cleaved and total levels of cytokeratin-18 in plasma using M30 Apoptosense® and M65 ELISA®s assays (Peviva). […]
In vitro proteasome activity assays using 20S CP (2 nM) (Boston Biochem) were performed at 37° C. in 100-μl reaction buffer (25 mM Hepes, 0.5 mM EDTA, 0.03% SDS). […] Fluorescence was monitored using Wallac Multilabel counter or Tecan Infinite M1000 equipped with 360 nm excitation and 460 nm emission filters. […]
Dose response of b-AP15 (FIG. 11a): Purified 19S proteasomes (5 nM) were treated with indicated concentrations of b-AP15, and DUB activity was determined by detection of Ub-AMC cleavage. […]

[2] = target: T1, 19S RP; assay: Ubiquitin chain disassembly of K48/K63 linked ubiquitin tetramers by 19S RP
Procedure: To this end the ability of b-AP15 to inhibit cleavage of recombinant ubiquitin-GFP was assessed. Recombinant ubiquitin-GFP is a substrate for 19S RP DUB activity (22). […] The type of ubiquitin bonds present in the polyubiquitin chain determines the fate of an ubiquitin-modified substrate. K48 linked polyubiquitin chains generally targets conjoined proteins for degradation (23), whereas K63 linked chains are involved in non-proteolytic roles including DNA repair (24) and mitotic chromosome segregation (25). […] The inhibition of ubiquitin chain disassembly observed could account for the accumulation of high molecular weight ubiquitin conjugates in b-AP15 treated cells.
The recombinant Ub-GFP plasmid pet19b Ub-M-GFP was generated as described (42). In brief recombinant Ub-GFP was purified from BL21 E. coli cells by His affinity purification. For cleavage assays 19S RP (25 nM) was incubated with 10 mM NEM, 250 μM TPEN or 50 μM b-AP15 for 10 min followed by the addition of recombinant Ub-GFP (200 nM). […] The level of Ub-GFP cleavage or ubiquitin disassembly was determined by immunoblotting with anti ubiquitin antibodies. […] The cleavage of ubiquitinated Hdm2 substrate and ubiquitinated Hdm2 was determined by immunoblotting with anti-Hdm2 antibodies. […]

[3] = system: non-proteasomal DUBs (UCH-L1, UCH-L3, USP2CD, USP7CD, USP8CD, BAP1); assay: Recombinant non-proteasomal DUBs with ubiquitin-AMC, % activity
Procedure: In vitro proteasome activity assays using 20S CP (2 nM) (Boston Biochem) were performed at 37° C. in 100-μl reaction buffer (25 mM Hepes, 0.5 mM EDTA, 0.03% SDS). Samples were incubated for 10 min with indicated compound followed by addition of 10 μM Suc-LLVY-AMC, Z-LLE-AMC or Boc-LRR-AMC for the detection of chymotrypsin-like, caspase-like and trypsin-like activity respectively. For DUB inhibition assays 19S RP (5 nM), 26S (5 nM) UCH-L1 (5 nM), UCH-L3 (0.3 nM), USP2CD (5 nM) USP7CD (5 nM) USP8CD (5 nM) and BAP1 (5 nM) were incubated with b-AP15 followed by addition of ubiquitin-AMC (1000 nM). Fluorescence was monitored using Wallac Multilabel counter or Tecan Infinite M1000 equipped with 360 nm excitation and 460 nm emission filters. Substrate overlay assays. Native gel electrophoresis was performed as described (41). In brief 4 μg of purified 26S proteasome (Boston Biochem) was mixed with 10 or 50 μM b-AP15 and incubated at 37° C. for 10 min. Samples were resolved on 4% non-denaturing PAGE. Gels were submerged in assay buffer (20 mM Tris-HCL, 5 mM MgCl2, 1 mM ATP, 0.1 mM Suc-LLVY-AMC) and proteasomes were visualized under UV illumination.
HCT-116 cells were treated for 3 h with b-AP15 (1 μM) and the proteasomes were affinity purified (FIG. 12a). […] Recombinant non-proteosomal DUBs were treated with b-AP15 and % activity determined. […]

C=CC(=O)N1C/C(=C\c2ccc([N+](=O)[O-])cc2)C(=O)/C(=C/c2ccc([N+](=O)[O-])cc2)C1 [b-AP15]
effect of reduced glutathione on inhibition of 19S DUB activity ([1]; b-AP15 10 μM mixed with GSH 2 mM, 19S 5 nM): did not reduce b-AP15 mediated inhibition
reversibility of inhibition of 19S DUB activity ([1]; recovery of activity after 50-fold rapid dilution of enzyme/b-AP15 complex): reversible inhibitor
19S RP processing of K48 and K63 linked ubiquitin tetramers [2]: inhibited 19S RP processing of both K48 and K63 linked ubiquitin tetramers
inhibition of recombinant non-proteasomal DUBs [3]: does not inhibit non-proteasomal DUBs
